Experiments:
[1] = tested on: SCD-Selp−/− mice; test: qFILM detection of circulating NETs arriving in the lung microcirculation, SCD-Selp−/− mice; type: in vivo, mouse; conditions: IV 10 μmole/kg oxy-Hb with 10 mg/kg inhibitor vs oxy-Hb alone, significant
Procedure: (§1) (FIG. 5A) Experimental scheme: SCD or SCD-Selp^−/− mice were IV administered 10 μmole/kg oxy-Hb (10 oxy-Hb) without or with 10 mg/kg GSDMD inhibitors LDC75591 or Disulfiram. In FIGS. 5C-5D, venous blood was processed to generate PPP and cNETs detected in PPP using Imaging Flow Cytometry. Imaging Flow Cytometry data was quantified to estimate concentration of cNETs (#cNETs/μl of plasma). In FIGS. 5B, and 5E-5F, quantitative fluorescence intravital lung microscopy (qFILM) was used to detect arrival of circulating NETs (cNETs) within the lung microcirculation. Number of cNETs entering per FOV over a 1-minute duration (#cNETs/FOV/min) were quantified. In FIGS. 5G-5J, qFILM was used to assess the absence or presence of pulmonary vaso-occlusion using the experimental strategy described in FIG. 1A. Pulmonary vaso-occlusions (PVOs) were compared between treatment groups using following two parameters: Number of PVOs per Field of View (#PVOs/FOV) and number of large PVOs (with area>1000 μm^2) per FOV. […]
Quantitative fluorescence intravital lung microscopy (qFILM) has been used widely for in vivo assessment of pulmonary vasoocclusion in mice with SCD [Bennewitz M F et al., (2017); Vats R, Brzoska T, Bennewitz M F, et al. (2020); Vats R, Tutuncuoglu E, Pradhan-Sundd T, Tejero J, Shaw G D, Sundd P. (2020); Bennewitz M F, Tutuncuoglu E, Gudapati S, et al. (2020)] […]

[2] = tested on: SCD-Selp−/− mice; test: cNETs in platelet-poor plasma by Imaging Flow Cytometry, SCD-Selp−/− mice; type: in vivo, mouse; conditions: IV 10 μmole/kg oxy-Hb with 10 mg/kg inhibitor vs oxy-Hb alone
Procedure: as §1, with “FOV. (FIG. 5B) #cNETs/FOV/min in SCD mice IV administered 10 oxy-Hb were not different from SCD-Selp^−/− mice IV administered 10 oxy-Hb. SCD IV Oxy-Hb (n=4 mice; 44 FOVs). SCD-Selp^−/− IV oxy-Hb (n=5 mice; 71 FOVs). (FIG. 5C) Plasma concentration of cNETs was not different between SCD and SCD-Selp^−/− mice (n=4 mice per group) IV administered 10 oxy-Hb.” for “FOV.”

SMILES: COc1ccccc1-c1cc2n(n1)Cc1ccc(NC(C)=O)cc1OC2 [LDC7559]
- #cNETs/FOV/min in the lung, less than 10 oxy-Hb alone [1]: 4 folds
- Plasma concentration of cNETs (#cNETs/μl of plasma) [2]: significantly less
